Experimental findings from ChEMBL document CHEMBL1201862, “PubChem BioAssay data set” (2004) are described below.

Experiment [1] is described as follows: HEp-2 cell cytotoxicity, dose response, cytotoxicity control for RSV inhibitor project, HTS (AID 2410). The note with it: human respiratory syncytial virus. The class given is functional.
Experiment [2] in a line: cells.
In experiment [3] the target is Photoreceptor-specific nuclear receptor (Homo sapiens, UniProt Q9Y5X4). The class given is functional.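 Note: potency for compounds that break the NR2E3 corepressor complex and count as activators.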
Chain of Photoreceptor-specific nuclear receptor (Q9Y5X4 whole entry): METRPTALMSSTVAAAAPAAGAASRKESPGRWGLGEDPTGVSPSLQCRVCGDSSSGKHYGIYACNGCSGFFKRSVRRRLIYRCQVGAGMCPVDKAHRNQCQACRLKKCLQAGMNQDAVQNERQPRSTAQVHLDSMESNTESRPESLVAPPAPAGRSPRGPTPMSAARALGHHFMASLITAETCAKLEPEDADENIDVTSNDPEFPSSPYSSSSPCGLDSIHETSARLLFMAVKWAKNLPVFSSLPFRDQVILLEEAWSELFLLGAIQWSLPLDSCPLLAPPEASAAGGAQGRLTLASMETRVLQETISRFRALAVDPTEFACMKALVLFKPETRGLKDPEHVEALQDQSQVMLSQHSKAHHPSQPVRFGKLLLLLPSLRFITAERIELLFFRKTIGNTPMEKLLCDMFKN
The target in experiment [4] is Peroxisome proliferator-activated receptor gamma/Nuclear receptor corepressor 2 (Homo sapiens, UniProt P37231+Q9Y618). The class given is functional.
Chain of Peroxisome proliferator-activated receptor gamma/Nuclear receptor corepressor 2 (P37231 whole entry): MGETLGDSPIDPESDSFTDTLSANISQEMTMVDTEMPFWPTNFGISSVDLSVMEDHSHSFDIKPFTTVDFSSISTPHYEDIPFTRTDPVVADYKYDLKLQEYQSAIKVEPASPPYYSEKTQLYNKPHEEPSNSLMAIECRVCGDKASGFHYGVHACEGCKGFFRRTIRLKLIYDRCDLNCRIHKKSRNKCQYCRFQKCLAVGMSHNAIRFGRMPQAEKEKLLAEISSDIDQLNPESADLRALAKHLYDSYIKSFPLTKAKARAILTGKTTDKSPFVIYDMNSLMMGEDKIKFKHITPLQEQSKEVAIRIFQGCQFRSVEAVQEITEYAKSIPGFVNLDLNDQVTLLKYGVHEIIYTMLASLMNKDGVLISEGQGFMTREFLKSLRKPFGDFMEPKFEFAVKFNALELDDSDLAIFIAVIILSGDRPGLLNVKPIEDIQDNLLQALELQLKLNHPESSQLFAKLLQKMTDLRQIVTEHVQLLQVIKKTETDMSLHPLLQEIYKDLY
Chain of Peroxisome proliferator-activated receptor gamma/Nuclear receptor corepressor 2 (Q9Y618 whole entry): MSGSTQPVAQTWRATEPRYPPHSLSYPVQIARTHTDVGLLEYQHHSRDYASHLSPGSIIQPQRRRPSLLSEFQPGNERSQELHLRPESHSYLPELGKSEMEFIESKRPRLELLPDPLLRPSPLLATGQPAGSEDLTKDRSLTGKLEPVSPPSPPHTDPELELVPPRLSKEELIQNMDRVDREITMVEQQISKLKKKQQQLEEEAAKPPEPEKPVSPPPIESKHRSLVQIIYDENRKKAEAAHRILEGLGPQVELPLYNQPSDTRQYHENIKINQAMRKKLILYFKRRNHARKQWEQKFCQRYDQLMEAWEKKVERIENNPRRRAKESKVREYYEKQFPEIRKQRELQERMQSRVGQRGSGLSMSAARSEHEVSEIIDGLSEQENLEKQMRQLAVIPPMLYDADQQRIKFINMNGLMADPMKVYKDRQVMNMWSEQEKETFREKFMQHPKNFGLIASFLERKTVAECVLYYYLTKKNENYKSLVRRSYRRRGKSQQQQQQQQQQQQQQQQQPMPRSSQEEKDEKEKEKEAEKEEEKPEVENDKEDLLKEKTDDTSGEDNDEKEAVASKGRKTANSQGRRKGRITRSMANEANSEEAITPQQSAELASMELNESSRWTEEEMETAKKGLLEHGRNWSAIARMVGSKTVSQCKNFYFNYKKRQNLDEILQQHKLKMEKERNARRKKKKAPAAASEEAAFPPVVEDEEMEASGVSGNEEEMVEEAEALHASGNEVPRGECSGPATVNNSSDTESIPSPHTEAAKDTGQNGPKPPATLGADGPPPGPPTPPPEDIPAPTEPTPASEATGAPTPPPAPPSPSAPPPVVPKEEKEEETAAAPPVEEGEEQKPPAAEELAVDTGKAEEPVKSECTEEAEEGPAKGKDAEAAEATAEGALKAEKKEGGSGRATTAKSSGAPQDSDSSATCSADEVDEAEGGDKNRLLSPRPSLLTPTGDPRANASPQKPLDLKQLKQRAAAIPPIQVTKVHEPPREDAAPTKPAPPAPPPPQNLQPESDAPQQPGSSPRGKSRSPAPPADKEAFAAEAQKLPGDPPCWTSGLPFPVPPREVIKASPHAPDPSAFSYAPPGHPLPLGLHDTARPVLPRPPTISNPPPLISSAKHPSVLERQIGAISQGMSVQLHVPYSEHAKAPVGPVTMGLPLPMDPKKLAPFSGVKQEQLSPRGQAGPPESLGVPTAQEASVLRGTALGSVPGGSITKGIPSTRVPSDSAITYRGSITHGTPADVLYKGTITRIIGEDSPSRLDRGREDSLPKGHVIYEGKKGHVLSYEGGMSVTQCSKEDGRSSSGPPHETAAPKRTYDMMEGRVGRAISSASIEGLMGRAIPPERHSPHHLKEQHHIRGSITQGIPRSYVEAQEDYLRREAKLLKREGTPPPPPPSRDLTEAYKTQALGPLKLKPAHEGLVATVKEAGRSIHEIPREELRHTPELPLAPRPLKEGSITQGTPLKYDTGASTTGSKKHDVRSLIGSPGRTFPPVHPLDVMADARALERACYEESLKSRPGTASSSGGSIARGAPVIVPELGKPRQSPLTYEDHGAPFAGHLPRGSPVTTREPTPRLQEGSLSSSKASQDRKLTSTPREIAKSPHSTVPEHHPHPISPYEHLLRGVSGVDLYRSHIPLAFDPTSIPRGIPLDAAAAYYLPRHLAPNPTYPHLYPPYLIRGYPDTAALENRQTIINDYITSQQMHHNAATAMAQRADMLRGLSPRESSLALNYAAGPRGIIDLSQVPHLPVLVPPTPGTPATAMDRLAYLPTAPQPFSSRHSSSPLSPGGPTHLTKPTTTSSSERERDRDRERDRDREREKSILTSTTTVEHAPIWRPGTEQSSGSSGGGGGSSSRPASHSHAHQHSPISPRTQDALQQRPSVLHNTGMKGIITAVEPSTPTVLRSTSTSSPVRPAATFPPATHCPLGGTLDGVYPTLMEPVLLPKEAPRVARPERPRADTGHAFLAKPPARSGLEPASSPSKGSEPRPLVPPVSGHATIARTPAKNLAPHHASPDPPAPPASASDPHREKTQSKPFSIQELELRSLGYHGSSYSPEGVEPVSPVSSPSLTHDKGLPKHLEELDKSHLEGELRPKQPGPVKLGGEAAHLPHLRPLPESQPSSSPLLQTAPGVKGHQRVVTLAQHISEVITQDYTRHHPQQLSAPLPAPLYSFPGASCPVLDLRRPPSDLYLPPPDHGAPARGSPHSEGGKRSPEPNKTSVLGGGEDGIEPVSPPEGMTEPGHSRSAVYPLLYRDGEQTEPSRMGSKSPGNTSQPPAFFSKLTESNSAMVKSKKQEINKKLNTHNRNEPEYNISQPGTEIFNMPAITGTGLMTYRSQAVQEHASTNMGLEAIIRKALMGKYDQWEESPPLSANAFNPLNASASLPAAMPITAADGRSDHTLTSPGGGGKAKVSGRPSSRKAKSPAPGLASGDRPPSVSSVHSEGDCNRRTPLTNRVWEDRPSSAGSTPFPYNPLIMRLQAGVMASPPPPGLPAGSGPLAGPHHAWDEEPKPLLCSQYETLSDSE
A short description of experiment [5]: inhibitors of SNCA 5'UTR-driven reporter translation, confirmation, H4 neuroglioma cells, luminescence (AID 1988). The class given is functional, cell-based.
Experiment [6] can be described thus: MC4R antagonists, dose response, counter-screen for LGR2 antagonist project, cell-based, plate reader, cherry pick (AID 743444).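 Note: transfected HEK 293 cells stimulated with alpha-MSH peptide; potency of inhibitors of the alpha-MSH evoked signal.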 The class given is functional. (Counterscreens check selectivity or assay interference.)
Experiment [7] in a line: Luminescence-based counterscreen assay for KLF5 inhibitors: dose response cell-based high throughput screening assay to identify cytotoxic compounds using the IEC-6 intestinal epithelial cell line. [Related pubchem assays: 1700 (Primary screen.), 1834 (Confirmation screen.), 1858 (Summary AID.), 1905 (Counterscreen.)]. The class given is functional.
Experiment [8] can be described thus: A549 cell cytotoxicity, dose response, cytotoxicity control, plate reader, cherry-pick, antagonist series (AID 743412). The class given is functional, cell-based.
For experiment [9], the target named is Luciferin 4-monooxygenase (Photinus pyralis, UniProt P08659). In words: firefly luciferase enzyme inhibitors, dose response, biochemical, luminescence (AID 1891).
Chain of Luciferin 4-monooxygenase (P08659 whole entry): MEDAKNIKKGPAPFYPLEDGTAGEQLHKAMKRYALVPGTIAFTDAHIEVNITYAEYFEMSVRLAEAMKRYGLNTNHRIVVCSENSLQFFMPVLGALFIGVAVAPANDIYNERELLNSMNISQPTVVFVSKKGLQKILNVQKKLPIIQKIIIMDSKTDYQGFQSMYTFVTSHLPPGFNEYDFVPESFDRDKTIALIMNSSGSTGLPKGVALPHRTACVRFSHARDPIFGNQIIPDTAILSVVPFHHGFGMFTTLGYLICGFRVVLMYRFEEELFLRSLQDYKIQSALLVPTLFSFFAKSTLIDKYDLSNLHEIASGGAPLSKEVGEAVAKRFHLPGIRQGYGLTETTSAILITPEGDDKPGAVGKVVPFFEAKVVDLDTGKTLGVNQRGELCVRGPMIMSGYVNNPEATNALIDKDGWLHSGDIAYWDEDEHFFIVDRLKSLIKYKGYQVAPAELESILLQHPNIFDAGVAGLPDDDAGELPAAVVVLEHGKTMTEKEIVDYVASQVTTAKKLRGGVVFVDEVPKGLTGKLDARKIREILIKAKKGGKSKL
Experiment [10] in a line: Luminescence Cell-Based Dose Response HTS to Identify Inhibitors of 5'UTR Stem-Loop Driven Prion Protein mRNA Translation in H4 Neuroglioblastoma Cells. [Related pubchem assays: 1827 (Project Summary), 1813 (Primary HTS)]. The class given is functional.
Experiment [11] is described as follows: HEK293 cell cytotoxicity, dose response, cytotoxicity control, plate reader, cherry-picked samples (AID 743446). The class given is functional, cell-based.
Experiment [12] in a line: HepG2 cell cytotoxicity, dose response, cytotoxicity control, plate reader, cherry-pick, antagonist series (AID 743416). The class given is functional, cell-based.
Experiment [13] can be described thus: inhibitors of firefly luciferase expression or activity, dose response, H4 neuroglioma cells, luminescence (AID 1990). The class given is functional, cell-based.
Experiment [14] in a line: Luminescence Cell-Based Dose Confirmation HTS to Identify Inhibitors of Platelet Dense Granule Release. [Related pubchem assays: 1663 (Primary HTS), 1678 (Summary of Project)]. The class given is functional.
Experiment [15] in a line: LGR2 antagonists, dose response, cell-based, HEK293, CRE-luciferase reporter, cherry pick, set 2 (AID 743343).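 Note: transfected cells were stimulated with diluted bursicon conditioned medium after compound addition.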 The class given is functional. For orientation: In a reporter assay the amount or activity of a reporter protein is the signal.

Active and inactive are the calls of the source.

As a reminder, the CC50 is the concentration at which the toxic effect on the cells reaches its halfway point. As a reminder, the IC50 is the midpoint of a concentration-inhibition curve. One may read the EC50 as the concentration at which the effect is half-maximal. As usually defined, the AC50 is the midpoint of the concentration-response curve, whichever way the signal moves.

In the case of `COc1ccc(-c2oc(=O)c3cc(OC)c(OC)cc3c2/C=C/c2cccc([N+](=O)[O-])c2)cc1`, in experiment [1], the 50% cytotoxic concentration (CC50) is 38 µM (active). Further, the 50% inhibitory concentration (IC50) in [2] was 14.8 µM (active).
As for `CCCCOc1ccc(-c2c(C#N)c(S)nc(C)c2C(=O)Nc2ccccc2)cc1`, the IC50 was 0.33 µM (active) in experiment [3] and 0.778 µM (active) in experiment [4].
As for `CCc1ccn2cc(-c3ccc4c(c3)OCO4)nc2c1`, the half-maximal effective concentration (EC50) in [5] is 0.158 µM (active); in experiment [9] it was 2.16 µM (active); in [10] it was < 0.1 µM (active); in experiment [13], 0.239 µM (active); in [14], 8.85 µM (active). In addition, the AC50 in [6] was 1.5 µM (active); in experiment [8], > 52 µM (inactive); in experiment [11] it was > 52 µM (inactive); in experiment [12] it was > 52 µM (inactive); in [15], 1.22 µM (active). The IC50 in experiment [7] is given as 21.5 µM (not active).
As to `COC(=O)C1=C(C)N(Cc2ccco2)C(=O)N[C@H]1c1ccccc1`, the cytotoxic concentration (CC50) in experiment [1] was > 50 µM (active). The IC50 in [2] was 21.8 µM (active).
Regarding `CCOc1cccc(C2C(C(=O)c3ccc(C)o3)=C(O)C(=O)N2CCCn2ccnc2)c1` (centres undefined), the IC50 is given as > 39.8 µM (not active) in [3] and 16.8 µM (not active) in experiment [4].
